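96-well plates; 48 h exposure; 5 concentrations. Endpoints by linear interpolation between flanking doses. Not reached: highest tested concentration assigned. Abbreviation: GI50, concentration required for 50% inhibition of growth. TGI: concentration producing complete growth inhibition.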
Columns and labels:
Test in all cases: NCI-60 cell line screen, 48 h; in the data active = GI50 below about 0.43 µM; inactive = the rest
[1] = system: NCI-H23 lung
[2] = system: NCI-H460 lung
[3] = system: NCI-H522 lung
[4] = system: NCI/ADR-RES ovarian
[5] = system: OVCAR-3 ovarian
[6] = system: OVCAR-4 ovarian
[7] = system: OVCAR-5 ovarian
[8] = system: OVCAR-8 ovarian
[9] = system: PC-3 prostate
[10] = system: RPMI-8226 leukemia
[11] = system: RXF 393 renal
[12] = system: SF-268 CNS
[13] = system: SF-295 CNS
[14] = system: SF-539 CNS
[15] = system: SK-MEL-2 melanoma
[16] = system: SK-MEL-28 melanoma
[17] = system: SK-MEL-5 melanoma
[18] = system: SK-OV-3 ovarian
[19] = system: SN12C renal
[20] = system: SNB-19 CNS
[21] = system: SNB-75 CNS
[22] = system: SW-620 colon
[23] = system: T-47D breast
[24] = system: TK-10 renal
[25] = system: U251 CNS
[26] = system: UACC-257 melanoma
[27] = system: UACC-62 melanoma
[28] = system: UO-31 renal

O=c1c2[nH]ccc2nc2n1CCS2
> 100 µM: TGI [1] | TGI [2] | TGI [3] | TGI [4] | TGI [5] | TGI [6] | TGI [7] | TGI [8] | TGI [9] | TGI [10] | TGI [11] | TGI [12] | TGI [13] | TGI [14] | TGI [15] | TGI [16] | TGI [18] | TGI [19] | TGI [20] | TGI [21] | TGI [22] | TGI [23] | TGI [24] | TGI [25] | TGI [26] | TGI [27] | TGI [28]
0.913 µM: TGI [17]
inactive: GI50 [2] > 100 µM | GI50 [3] > 100 µM | GI50 [4] > 100 µM | GI50 [5] > 100 µM | GI50 [6] > 100 µM | GI50 [7] > 100 µM | GI50 [8] > 100 µM | GI50 [9] > 100 µM | GI50 [10] > 100 µM | GI50 [11] > 100 µM | GI50 [12] > 100 µM | GI50 [13] > 100 µM | GI50 [14] > 100 µM | GI50 [15] > 100 µM | GI50 [16] > 100 µM | GI50 [18] > 100 µM | GI50 [19] > 100 µM | GI50 [20] > 100 µM | GI50 [21] 33.6 µM | GI50 [22] > 100 µM | GI50 [23] > 100 µM | GI50 [24] > 100 µM | GI50 [25] > 100 µM | GI50 [26] > 100 µM | GI50 [27] > 100 µM | GI50 [28] > 100 µM
active: GI50 [17] 0.324 µM

Source: PubChem BioAssay (NCI)
